These results are taken from PubChem BioAssay (NCI).

Among the test systems are MDA-MB-231 breast; HCC-2998 colon; SF-539 CNS; UO-31 renal; OVCAR-3 ovarian; OVCAR-5 ovarian; MOLT-4 leukemia; MCF7 breast; DU-145 prostate; CAKI-1 renal.
Assay in all cases: DTP human tumour cell line panel, 48 h

“And” between values parts separate entries of the source, which are not always exact repeats. Equal values may be shown once.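 Cells were grown in 96-well plates and exposed to each compound for 48 hours at five concentrations; endpoints were interpolated linearly between bracketing concentrations, or set to the highest concentration if not reached. Here, GI50 denotes the concentration required for 50% inhibition of growth. Definition used: TGI = concentration required for complete inhibition of growth.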 Some results are limits rather than exact numbers.

What is called TGI is the concentration at which net growth stops. A higher TGI goes with less potent growth arrest. Usually GI50 stands for the concentration that inhibits growth by half. `COc1ccc(/C=C\c2cc(OC)c(OC)c(OC)c2)c(O)c1O`: the total growth inhibition concentration (TGI) in the experiment on MDA-MB-231 breast is 18.5 µM; in the experiment on HCC-2998 colon, 2.47 µM and 3.06 µM; in the experiment on SF-539 CNS, 0.0821 µM and 0.2 µM; with UO-31 renal, 33.7 µM and > 77.8 µM; in the experiment with OVCAR-3 ovarian it was 6.47 µM and 0.77 µM; in the experiment on OVCAR-5 ovarian, 51.8 µM and 96.4 µM. In addition, the total growth inhibition concentration (TGI) in the experiment with MOLT-4 leukemia is 20.8 µM and 3.4 µM. The GI50 in the experiment with SF-539 CNS is < 0.0264 µM and 0.05 µM; in the experiment on UO-31 renal it was 6.76 µM; in the experiment with OVCAR-3 ovarian, 0.0695 µM and 0.0832 µM; in the experiment with OVCAR-5 ovarian it was 43.7 µM; with MOLT-4 leukemia, 0.456 µM; in the experiment with MCF7 breast, 0.05 µM.
In the case of `CC1CC(C)C2=NOS3=C2C1=NO3` (configuration not stated), the concentration for total growth inhibition (TGI) in the experiment with DU-145 prostate, in the experiment on MDA-MB-231 breast, with HCC-2998 colon, in the experiment with SF-539 CNS, in the experiment with UO-31 renal and in the experiment with OVCAR-3 ovarian was more than 100 µM in each case. Besides, the TGI with OVCAR-5 ovarian, in the experiment with MOLT-4 leukemia, with MCF7 breast and with CAKI-1 renal was more than 100 µM throughout.
Turning to `C1CCN2CC3CCCN4CCCC(C2C1)C34` (configuration not stated), the concentration for total growth inhibition (TGI) with DU-145 prostate, with MDA-MB-231 breast, with HCC-2998 colon, in the experiment with SF-539 CNS, with OVCAR-3 ovarian and in the experiment on OVCAR-5 ovarian was more than 100 µM in each case. In addition, the TGI in the experiment on MOLT-4 leukemia, with MCF7 breast and with CAKI-1 renal was more than 100 µM in each case.
For the compound `COc1ccc2c(c1)C(=O)c1c-2n(CCCN)c(=O)c2cc(OC)c(OC)cc12`, the 50% growth inhibitory concentration (GI50) with DU-145 prostate was less than 0.01 µM; with MDA-MB-231 breast, 0.57 µM; in the experiment with HCC-2998 colon, 0.109 µM; with SF-539 CNS it was 0.164 µM; with UO-31 renal, 1.19 µM; in the experiment on OVCAR-3 ovarian, 0.203 µM. For the same compound, the results for the GI50 in the experiment on OVCAR-5 ovarian, with MOLT-4 leukemia and with CAKI-1 renal were 1.59 µM, less than 0.01 µM and 0.0619 µM, respectively. Also, the TGI with DU-145 prostate was 0.153 µM; in the experiment on MDA-MB-231 breast it was 1.86 µM; in the experiment on HCC-2998 colon, 0.294 µM; in the experiment on SF-539 CNS, 1.29 µM; in the experiment with UO-31 renal it was 2.72 µM; with OVCAR-3 ovarian, 1.38 µM. In addition, the concentration for total growth inhibition (TGI) came to 3.01 µM in the experiment with OVCAR-5 ovarian and 0.467 µM in the experiment on CAKI-1 renal.
For `Nc1nc(N)c(N=Nc2ccc(C(=O)O)c(O)c2)c(N)n1`, the TGI with DU-145 prostate is more than 100 µM; in the experiment with MDA-MB-231 breast it was more than 100 µM; with SF-539 CNS, more than 100 µM; in the experiment on UO-31 renal it was more than 100 µM; in the experiment with OVCAR-3 ovarian, 53.8 µM; with OVCAR-5 ovarian it was more than 100 µM. For the same compound, the total growth inhibition concentration (TGI) in the experiment with MOLT-4 leukemia, in the experiment with MCF7 breast and with CAKI-1 renal was more than 100 µM throughout.
With `COc1cc(/C=C\c2cc(/C=C\c3ccc(O)c(OC)c3)n(C(=O)CNc3ccc(Cl)cc3)n2)ccc1O`, the GI50 is 3.25 µM in the experiment with DU-145 prostate; 4.02 µM in the experiment on MDA-MB-231 breast; 6.01 µM in the experiment with HCC-2998 colon; 1.21 µM with UO-31 renal; 2.46 µM with OVCAR-3 ovarian; 2.78 µM with OVCAR-5 ovarian. Also, the GI50 in the experiment on MOLT-4 leukemia was 2.05 µM; in the experiment with MCF7 breast, 2.34 µM; in the experiment with CAKI-1 renal, 3.36 µM. Also, the concentration for total growth inhibition (TGI) in the experiment with DU-145 prostate was determined as 12.3 µM; in the experiment on MDA-MB-231 breast, 45 µM; with HCC-2998 colon, 18 µM; in the experiment on UO-31 renal, 8.42 µM; with OVCAR-3 ovarian, 8.11 µM; in the experiment on OVCAR-5 ovarian it was 25.4 µM. In addition, the concentration for total growth inhibition (TGI) in the experiment on MOLT-4 leukemia is 15.6 µM; in the experiment on MCF7 breast it was 11.9 µM; with CAKI-1 renal, 43.6 µM.
In the case of `CCCN1C(=O)/C(=C/c2ccc(O)cc2)SC1=Nc1ccc(OC)cc1`, the GI50 is 10.3 µM with DU-145 prostate; 14.1 µM in the experiment on MDA-MB-231 breast; 16.2 µM with SF-539 CNS; 25.7 µM with UO-31 renal; 17.3 µM in the experiment on OVCAR-3 ovarian; 15.9 µM in the experiment on OVCAR-5 ovarian. Besides, the GI50 in the experiment on MOLT-4 leukemia is 10.7 µM; in the experiment on MCF7 breast it was 23.2 µM; with CAKI-1 renal, 12.9 µM. Also, the TGI with DU-145 prostate was 29.5 µM; with MDA-MB-231 breast it was 31 µM; with SF-539 CNS, 33.1 µM; in the experiment on UO-31 renal, more than 100 µM; with OVCAR-3 ovarian, 42.8 µM; in the experiment on OVCAR-5 ovarian it was 29.6 µM. The TGI is more than 100 µM in the experiment on MOLT-4 leukemia, 94.2 µM in the experiment on MCF7 breast and 27.8 µM in the experiment with CAKI-1 renal.
For `O=C(NNC(=S)Nc1ccccc1)c1ccccn1`, the GI50 is 3.8 µM in the experiment with DU-145 prostate; 3.85 µM with MDA-MB-231 breast; 2.43 µM in the experiment on SF-539 CNS; 0.95 µM in the experiment on UO-31 renal; 6.83 µM in the experiment with OVCAR-3 ovarian; more than 100 µM in the experiment with OVCAR-5 ovarian. Also, the GI50 in the experiment with MOLT-4 leukemia was 2.84 µM; in the experiment on MCF7 breast, 3.14 µM; with CAKI-1 renal, 1.37 µM. Also, the TGI was more than 100 µM in the experiment with DU-145 prostate; more than 100 µM in the experiment on MDA-MB-231 breast; 20.8 µM in the experiment with SF-539 CNS; 16.9 µM in the experiment with UO-31 renal; more than 100 µM in the experiment with OVCAR-3 ovarian; more than 100 µM with OVCAR-5 ovarian. Besides, the TGI in the experiment on MOLT-4 leukemia, in the experiment on MCF7 breast and in the experiment with CAKI-1 renal was more than 100 µM throughout.
Take `CO[C@@H]1[C@H]2[C@@H](C)c3ccoc3C[C@@H]2[C@@]2(C)CC[C@H](OC(=O)c3ccccc3)[C@](C)(C(=O)O)[C@]2(O)[C@@H]1OC(=O)c1ccccc1`: the GI50 with DU-145 prostate is 12.1 µM; in the experiment with MDA-MB-231 breast, 6.07 µM; in the experiment on SF-539 CNS it was 8.81 µM; in the experiment on UO-31 renal, more than 50 µM; with OVCAR-3 ovarian, 5.17 µM; in the experiment with OVCAR-5 ovarian, 12 µM. Also, the results for the GI50 with MOLT-4 leukemia, in the experiment on MCF7 breast and with CAKI-1 renal were 9.67 µM, 17.4 µM and 7.46 µM, respectively. In addition, the total growth inhibition concentration (TGI) in the experiment on DU-145 prostate is more than 50 µM; with MDA-MB-231 breast, 16 µM; with SF-539 CNS it was 16.5 µM; in the experiment with UO-31 renal it was more than 50 µM; in the experiment on OVCAR-3 ovarian, 15.9 µM; with OVCAR-5 ovarian, 31.2 µM. Besides, the results for the total growth inhibition concentration (TGI) with MOLT-4 leukemia, in the experiment on MCF7 breast and in the experiment with CAKI-1 renal were 38.4 µM, more than 50 µM and 15.6 µM, respectively.
`COC(=O)C(=O)C(C(=O)C(=O)Nc1ccc(C)cc1)c1nc2ccc(C(=O)c3ccccc3)cc2[nH]c1=O` (configuration not stated): the TGI with MDA-MB-231 breast, with HCC-2998 colon, with SF-539 CNS, in the experiment on UO-31 renal, in the experiment with OVCAR-3 ovarian and with OVCAR-5 ovarian was more than 100 µM throughout. The same compound had a TGI with CAKI-1 renal of more than 100 µM.
